Source: US20090149417A1, “Methods and compositions for the treatment of cancer using benzopyrone-type PARP inhibitors” (priority 2007, published 2009)

Legend:
Format in all cases: cell-based, human
[1] = tested on: Colo375FG metastatic pancreatic adenocarcinoma cells; assay: Bromodeoxyuridine (BrdU) labeling assay (flow cytometry); conditions: Compound IIIc 12.5 mM; one value printed beside OxaliPt 0 10 20 mM, OxaliPt level not assignable
Method: 50 μl of BrdU (Sigma Chemical Co., St. Louis, Mo.) stock solution (1 mM) is added to give 10 μM BrdU final concentration. The cells are incubated for 30 min at 37° C. and fixed in ice-cold 70% ethanol and stored in a cold room (4° C.) overnight. Fixed cells are centrifuged and washed once in 2 ml PBS, then resuspended in 0.7 ml of denaturation solution (0.2 mg/ml pepsin in 2 N HCl) for 15 min at 37° C. in the dark and suspended with 1.04 ml 1M Tris buffer (Trizma base, Sigma Chemical Co.) to terminate the hydrolysis and washed in 2 ml PBS.
(§1) Cells are resuspended in 100-μl anti-BrdU antibody (DakoCytomation, Carpinteria, Calif.) with 1:100 dilution in TBFP permeable buffer (0.5% Tween-20, 1% bovine serum albumin and 1% fetal bovine serum in PBS) and incubated for 25 min at room temperature in the dark and washed in 2 ml PBS. The primary antibody-labeled cells are resuspended in 100 μl Alexa Fluor F(ab′)2 fragment of goat anti-mouse IgG (H+L) (2 mg/mL) (Molecular Probes, Eugene, Oreg.) with 1:200 dilution in TBFP permeable buffer and incubated for 25 min at room temperature in the dark and washed in 2 ml PBS, then resuspended in 0.5 ml ice-cold PBS containing 1 μg/ml 4′,6-diamidino-2-phenylindole (DAPI) for at least 30 min. All cell samples are analyzed with a BD LSR II (BD Biosciences, San Jose, Calif.).
as §1, with “50 μl of BrdU (Sigma Chemical Co., St. Louis, Mo.) stock solution (1 mM) is added to give 10 μM BrdU final concentration. The cells are incubated for 30 min at 37 °C and fixed in ice-cold 70% ethanol and stored in a cold room (4 °C) overnight. Fixed cells are centrifuged and washed once in 2 ml PBS, then resuspended in 0.7 ml of denaturation solution (0.2 mg/ml pepsin in 2 N HCl) for 15 min at 37° C. in the dark and suspended with 1.04 ml 1M Tris buffer (Trizma base, Sigma Chemical Co.) and washed in 2 ml PBS. Then cells” for “Cells”

[2] = tested on: Colo375FG metastatic pancreatic adenocarcinoma cells; assay: Live cell number (Coulter counter, methylene blue, PI exclusion)
Method: Colo375FG metastatic pancreatic adenocarcinoma cells are cultured in Dulbecco Modified Eagle Medium with 10% fetal bovine serum. Cells are plated at 10^5 per P100 or at 10^4 per P60 (for assays requiring up to 3 days of culture), in the presence of different concentrations of BiPar compounds and other agents, or DMSO control. Following treatment, the number of attached cells is measured using Coulter counter, and by staining with 1% methylene blue. Methylene blue is dissolved in 50%-50% mixture of Methanol and water. Cells are plated in 24- or 96-well plates and treated with compounds as indicated, then media are aspirated, cells are washed with PBS, fixed in methanol for 5-10 min, washed and the plates are allowed to dry completely. Methylene blue solution is added to wells and plates are incubated for 5 min. Staining solution is removed and plates are washed with dH2O. After plates are completely dry, a small amount of 1N HCl is added to each well to extract the methylene blue. The OD readout at 600 nm and a calibration curve are used to determine cell number.
IIIg (6-nitro-5-iodo-benzopyrone) is dissolved directly from dry powder to 10 mM stock solution in DMSO for each separate experiment, and then the entire volume of the stock solution is used to prepare working concentrations in cell culture medium to avoid any possibility of precipitation and the corresponding loss of compound. Control experiments are carried out with the matching volume/concentration of the vehicle (DMSO).
(§2) After the addition of drugs and incubation, cells are trypsinized and aliquots of the samples are taken for counting and PI (Propidium Iodide) exclusion assay. One part of the cells is centrifuged and resuspended in 0.5 ml ice-cold PBS containing 5 μg/ml of PI. The other part of the cells is fixed in ice-cold 70% ethanol and stored in a freezer overnight. For cell cycle analysis, cells are stained with propidium iodide (PI) by standard procedures. Cellular DNA content is determined by flow cytometry using BD LSRII FACS, and the percentages of cells in G1, S or G2/M are determined using ModFit software.
Colo375FG metastatic pancreatic adenocarcinoma cells are obtained from ATCC and cultured in Dulbecco Modified Eagle Medium with 10% fetal bovine serum. Cells are plated at 10^5 cells per P100 cell culture dish or at 10^4 cells per P60 cell culture dish in the presence of different concentrations compounds or DMSO control. Following treatment, the number of attached cells is measured using Coulter counter, and by staining with 1% methylene blue. Methylene blue is dissolved in 50%-50% mixture of Methanol and water. Cells are plated in 24- or 96-well plates and treated as planned, media are aspirated, cells are washed with PBS, fixed in methanol for 5-10 min, methanol is aspirated and plates are allowed to dry completely. Methylene blue solution is added to wells and plates are incubated for 5 min. Staining solution is removed and plates are washed with dH2O until washes are no longer blue. After plates are completely dry, a small amount of 1N HCl is added to each well to extract the methylene blue. The OD readout at 600 nm and a calibration curve are used to determine cell number.
Compounds of the invention are dissolved directly from dry powder to 10 mM stock solution in DMSO for each separate experiment. Control experiments are carried out with the matching volume/concentration of the vehicle (DMSO). In these controls, the cells show no changes in their growth or cell cycle distribution.
as §2, with “ug/ml” for “μg/ml”, “Cellular DNA content is determined by flow cytometry using BD LSRII FACS, and the percentages of cells in G1, S or G2/M are determined using ModFit software.” left out

[3] = tested on: Colo375FG metastatic pancreatic adenocarcinoma cells; assay: TUNEL apoptosis assay (flow cytometry)
Method: Cells are labeled for apoptosis with the “In Situ Cell Death Detection Kit, Fluorescein” (Roche Diagnostics Corporation, Roche Applied Science, Indianapolis, Ind.). Briefly, fixed cells are centrifuged and washed once in phosphate-buffered saline (PBS) containing 1% bovine serum albumin (BSA), then resuspended in 2 ml permeabilization buffer (0.1% Triton X-100 and 0.1% sodium citrate in PBS) for 25 min at room temperature and washed twice in 0.2 ml PBS/1% BSA. The cells are resuspended in 50 μl TUNEL reaction mixture (TdT enzyme and labeling solution) and incubated for 60 min at 37° C. in a humidified dark atmosphere in an incubator. The labeled cells are washed once in PBS/1% BSA, then resuspended in 0.5 ml ice-cold PBS containing 1 μg/ml 4′,6-diamidino-2-phenylindole (DAPI) for at least 30 min. All cell samples are analyzed with a BD LSR II (BD Biosciences, San Jose, Calif.).
The cells are labeled for apoptosis with the “In Situ Cell Death Detection Kit, Fluorescein” (Roche Diagnostics Corporation, Roche Applied Science, Indianapolis, Ind.). Briefly, fixed cells are centrifuged and washed once in phosphate-buffered saline (PBS) containing 1% bovine serum albumin (BSA), then resuspended in 2 ml permeabilization buffer (0.1% Triton X-100 and 0.1% sodium citrate in PBS) for 25 minutes at room temperature and washed twice in 0.2 ml PBS/1% BSA. The cells are resuspended in 50 μl TUNEL reaction mixture (TdT enzyme and labeling solution) and incubated for 60 min at 37° C. in a humidified dark atmosphere in an incubator. The labeled cells are washed once in PBS/1% BSA, then resuspended in 0.5 ml ice-cold PBS containing 1 μg/ml 4,6-diamidino-2-phenylindole (DAPI) for at least 30 min. All cell samples are analyzed with a BD LSR II (BD Biosciences, San Jose, Calif.).

[4] = Compound IIIc 12.5 mM, OxaliPt 0 mM
[5] = combination: Compound IIIc 12.5 mM + OxaliPt 10 mM
[6] = combination: Compound IIIc 12.5 mM + OxaliPt 20 mM

O=c1ccc2c(CCCCN3CC=C(c4ccccc4)CC3)c([N+](=O)[O-])ccc2o1 [IIIc]
Cells in S-phase of cell cycle (% BrdU+) [1]: 73.87%
Live Cell (%) [2, 4]: 54%
Live Cell (%) [2, 5]: 33%
Live Cell (%) [2, 6]: 25%
Dead cells TUNEL (%) [3, 4]: 2.7%
Dead cells TUNEL (%) [3, 5]: 16.1%
Dead cells TUNEL (%) [3, 6]: 28.2%
